Experiments:
Format in all cases: biochemical
Tek = target: T1, Tek (Homo sapiens, UniProt Q02763); test: Kinase inhibition assay (33P transfer), Tek; conditions: for IC50: read-out: Tek-1
T1 construct: Kinases are expressed as either kinase domains or full length constructs; made in house
In short: (§1)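 Radiometric format: recombinant tagged kinase (catalytic domain or whole protein, sometimes combined with regulatory polypeptides) phosphorylates immobilised poly(Glu,Tyr) 4:1 or poly(Arg,Ser) 3:1 using [33P]ATP. Wells are washed in 0.5% phosphoric acid, then counted. IC50 is taken where substrate labelling falls by half.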

ErbB2 = target: T2, ErbB2 (Homo sapiens, UniProt P04626); test: Kinase inhibition assay (33P transfer), ErbB2; conditions: for IC50: read-out: ErbB2-2
T2 construct: Kinases are expressed as either kinase domains or full length constructs; made in house
In short: as §1

Kdr = target: T3, Kdr (Homo sapiens, UniProt P35968); test: Kinase inhibition assay (33P transfer), Kdr; conditions: for IC50: read-out: KDR-1
T3 construct: Kinases are expressed as either kinase domains or full length constructs; made in house
T3 sequence (P35968 20-1356, species assumed): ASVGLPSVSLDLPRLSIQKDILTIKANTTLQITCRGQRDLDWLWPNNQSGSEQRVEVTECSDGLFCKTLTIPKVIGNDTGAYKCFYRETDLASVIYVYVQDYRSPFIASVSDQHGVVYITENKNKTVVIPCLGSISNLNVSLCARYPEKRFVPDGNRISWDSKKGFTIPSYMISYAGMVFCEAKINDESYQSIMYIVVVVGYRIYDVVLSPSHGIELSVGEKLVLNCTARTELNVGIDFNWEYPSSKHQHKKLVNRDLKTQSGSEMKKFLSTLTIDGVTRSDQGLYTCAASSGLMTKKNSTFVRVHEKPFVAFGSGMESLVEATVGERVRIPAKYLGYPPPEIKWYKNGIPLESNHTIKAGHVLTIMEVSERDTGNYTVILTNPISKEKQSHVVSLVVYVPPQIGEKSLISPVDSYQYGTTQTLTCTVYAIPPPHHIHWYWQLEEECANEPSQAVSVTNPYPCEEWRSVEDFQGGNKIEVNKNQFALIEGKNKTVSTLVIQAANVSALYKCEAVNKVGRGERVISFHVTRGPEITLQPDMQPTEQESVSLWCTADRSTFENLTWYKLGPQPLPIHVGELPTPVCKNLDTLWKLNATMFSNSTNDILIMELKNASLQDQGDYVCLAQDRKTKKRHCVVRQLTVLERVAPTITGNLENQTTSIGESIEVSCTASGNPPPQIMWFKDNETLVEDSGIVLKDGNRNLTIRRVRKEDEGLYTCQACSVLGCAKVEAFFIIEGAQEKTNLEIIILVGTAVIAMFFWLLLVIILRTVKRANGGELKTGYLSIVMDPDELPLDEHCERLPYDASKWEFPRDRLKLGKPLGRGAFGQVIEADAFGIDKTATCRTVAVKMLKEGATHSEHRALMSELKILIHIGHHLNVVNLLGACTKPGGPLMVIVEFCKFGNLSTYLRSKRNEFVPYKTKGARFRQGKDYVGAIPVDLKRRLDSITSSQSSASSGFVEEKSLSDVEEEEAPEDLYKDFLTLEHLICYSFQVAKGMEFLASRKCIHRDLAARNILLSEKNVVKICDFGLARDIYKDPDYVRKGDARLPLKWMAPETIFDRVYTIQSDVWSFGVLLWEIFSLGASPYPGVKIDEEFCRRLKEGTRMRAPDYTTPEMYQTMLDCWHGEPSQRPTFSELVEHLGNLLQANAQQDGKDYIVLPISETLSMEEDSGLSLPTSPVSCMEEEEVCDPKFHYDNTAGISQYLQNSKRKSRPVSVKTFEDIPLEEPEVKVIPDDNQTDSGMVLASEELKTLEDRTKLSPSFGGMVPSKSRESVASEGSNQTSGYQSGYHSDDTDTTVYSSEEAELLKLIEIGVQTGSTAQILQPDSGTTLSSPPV
In short: (§2)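 Measured by scintillation: radiolabelled phosphate added by tagged recombinant kinases to poly(Glu,Tyr) 4:1 or poly(Arg,Ser) 3:1 attached to microtiter wells, counted once free label was washed away with 0.5% phosphoric acid.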

Zap-70 = target: T4, Zap-70 (Homo sapiens, UniProt P43403); test: Kinase inhibition assay (33P transfer), Zap-70; conditions: for IC50: read-out: Zap-1
T4 construct: Kinases are expressed as either kinase domains or full length constructs; made in house
T4 sequence (P43403 1-619): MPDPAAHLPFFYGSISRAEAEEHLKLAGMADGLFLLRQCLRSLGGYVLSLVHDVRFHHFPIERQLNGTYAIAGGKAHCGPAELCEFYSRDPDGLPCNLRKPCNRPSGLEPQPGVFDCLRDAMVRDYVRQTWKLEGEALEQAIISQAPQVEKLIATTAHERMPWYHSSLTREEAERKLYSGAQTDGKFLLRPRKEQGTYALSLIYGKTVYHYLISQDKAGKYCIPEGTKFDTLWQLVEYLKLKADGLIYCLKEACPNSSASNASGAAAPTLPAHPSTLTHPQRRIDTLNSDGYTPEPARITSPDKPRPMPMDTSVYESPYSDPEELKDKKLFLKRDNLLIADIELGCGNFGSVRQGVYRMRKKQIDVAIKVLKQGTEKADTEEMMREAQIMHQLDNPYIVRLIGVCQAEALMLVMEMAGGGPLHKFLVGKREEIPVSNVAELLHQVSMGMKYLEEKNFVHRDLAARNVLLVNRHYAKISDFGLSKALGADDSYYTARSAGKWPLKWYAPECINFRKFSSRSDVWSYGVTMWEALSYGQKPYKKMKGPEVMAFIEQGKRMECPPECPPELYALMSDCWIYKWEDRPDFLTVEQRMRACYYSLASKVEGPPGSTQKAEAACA
In short: as §2

c-Met = target: T5, c-Met (Homo sapiens, UniProt P08581); test: Kinase inhibition assay (33P transfer), c-Met; conditions: Table 2, kinase inhibition class; for IC50: read-out: Met-1
T5 construct: Kinases are expressed as either kinase domains or full length constructs; made in house
In short: as §1

EGFR = target: T6, EGFR (Homo sapiens, UniProt P00533); test: Kinase inhibition assay (33P transfer), EGFR; conditions: Table 2, kinase inhibition class; for IC50: read-out: EGFR-1
T6 construct: Kinases are expressed as either kinase domains or full length constructs; made in house
In short: as §1

IGFR-1 = target: T7, IGFR-1 (Homo sapiens, UniProt P08069); test: Kinase inhibition assay, IGFR-1 (Table 2); conditions: Table 2, kinase inhibition class
T7 construct: Kinases are expressed as either kinase domains or full length constructs; made in house

PDGFRB = target: T8, PDGFRB (Homo sapiens, UniProt P09619); test: Kinase inhibition assay (33P transfer), PDGFRB; conditions: for IC50: read-out: PDGFRB-1
T8 construct: Kinases are expressed as either kinase domains or full length constructs; made in house
T8 sequence (P09619 33-1106, species assumed): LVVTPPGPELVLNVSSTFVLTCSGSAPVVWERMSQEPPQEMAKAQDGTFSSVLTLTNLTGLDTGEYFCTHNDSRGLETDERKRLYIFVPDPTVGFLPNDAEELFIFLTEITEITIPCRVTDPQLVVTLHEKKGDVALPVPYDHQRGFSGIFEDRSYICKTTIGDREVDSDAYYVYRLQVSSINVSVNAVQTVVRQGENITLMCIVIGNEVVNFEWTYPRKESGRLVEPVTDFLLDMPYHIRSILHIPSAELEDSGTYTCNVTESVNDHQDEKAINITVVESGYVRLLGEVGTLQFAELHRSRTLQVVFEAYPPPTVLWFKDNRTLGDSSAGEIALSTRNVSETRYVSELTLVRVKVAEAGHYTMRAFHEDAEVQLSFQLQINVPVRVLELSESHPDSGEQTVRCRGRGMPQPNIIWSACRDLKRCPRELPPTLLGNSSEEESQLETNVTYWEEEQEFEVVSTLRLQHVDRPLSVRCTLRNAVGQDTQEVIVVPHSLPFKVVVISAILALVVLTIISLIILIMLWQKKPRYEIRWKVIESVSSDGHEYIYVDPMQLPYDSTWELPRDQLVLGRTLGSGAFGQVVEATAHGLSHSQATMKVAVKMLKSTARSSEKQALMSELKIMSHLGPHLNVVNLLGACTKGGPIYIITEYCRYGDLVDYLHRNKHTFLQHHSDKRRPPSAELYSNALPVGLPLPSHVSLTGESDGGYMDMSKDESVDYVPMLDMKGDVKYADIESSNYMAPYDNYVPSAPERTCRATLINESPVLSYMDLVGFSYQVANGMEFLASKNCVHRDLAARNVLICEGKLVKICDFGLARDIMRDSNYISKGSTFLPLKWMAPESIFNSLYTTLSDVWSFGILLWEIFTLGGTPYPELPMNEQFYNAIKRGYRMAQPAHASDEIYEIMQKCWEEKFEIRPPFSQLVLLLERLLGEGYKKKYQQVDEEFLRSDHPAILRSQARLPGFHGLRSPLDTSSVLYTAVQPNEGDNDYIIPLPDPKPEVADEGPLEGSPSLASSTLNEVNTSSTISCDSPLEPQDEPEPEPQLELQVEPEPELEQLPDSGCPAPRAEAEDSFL

Itk = target: T9, Itk (Homo sapiens, UniProt Q08881); test: Kinase inhibition assay (33P transfer), Itk; conditions: for IC50: read-out: Itk-1
T9 construct: Kinases are expressed as either kinase domains or full length constructs; made in house
T9 sequence (Q08881 1-620): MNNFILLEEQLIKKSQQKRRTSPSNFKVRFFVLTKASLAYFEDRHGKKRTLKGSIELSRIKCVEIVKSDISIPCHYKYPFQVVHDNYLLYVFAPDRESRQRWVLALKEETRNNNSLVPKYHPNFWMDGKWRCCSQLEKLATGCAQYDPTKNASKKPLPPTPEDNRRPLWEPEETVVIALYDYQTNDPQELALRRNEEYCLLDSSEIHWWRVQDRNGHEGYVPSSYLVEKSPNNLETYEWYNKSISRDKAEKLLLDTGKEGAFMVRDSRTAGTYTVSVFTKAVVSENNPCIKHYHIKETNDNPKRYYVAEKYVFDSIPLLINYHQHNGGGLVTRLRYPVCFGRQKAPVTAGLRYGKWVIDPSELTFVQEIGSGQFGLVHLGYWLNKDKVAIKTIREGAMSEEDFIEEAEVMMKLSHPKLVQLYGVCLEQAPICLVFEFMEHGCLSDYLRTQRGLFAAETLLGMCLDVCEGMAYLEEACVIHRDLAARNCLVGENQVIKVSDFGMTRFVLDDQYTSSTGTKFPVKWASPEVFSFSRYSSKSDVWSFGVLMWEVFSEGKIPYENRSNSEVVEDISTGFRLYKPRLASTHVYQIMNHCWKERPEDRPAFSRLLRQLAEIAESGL
In short: as §1

AKT = target: T10, AKT (Homo sapiens, UniProt Q9Y243); test: Kinase inhibition assay (33P transfer), AKT; conditions: Table 2, kinase inhibition class; for IC50: read-out: AKT3-1
T10 construct: Kinases are expressed as either kinase domains or full length constructs; made in house
T10 sequence (Q9Y243 whole entry, the tested form may be a part): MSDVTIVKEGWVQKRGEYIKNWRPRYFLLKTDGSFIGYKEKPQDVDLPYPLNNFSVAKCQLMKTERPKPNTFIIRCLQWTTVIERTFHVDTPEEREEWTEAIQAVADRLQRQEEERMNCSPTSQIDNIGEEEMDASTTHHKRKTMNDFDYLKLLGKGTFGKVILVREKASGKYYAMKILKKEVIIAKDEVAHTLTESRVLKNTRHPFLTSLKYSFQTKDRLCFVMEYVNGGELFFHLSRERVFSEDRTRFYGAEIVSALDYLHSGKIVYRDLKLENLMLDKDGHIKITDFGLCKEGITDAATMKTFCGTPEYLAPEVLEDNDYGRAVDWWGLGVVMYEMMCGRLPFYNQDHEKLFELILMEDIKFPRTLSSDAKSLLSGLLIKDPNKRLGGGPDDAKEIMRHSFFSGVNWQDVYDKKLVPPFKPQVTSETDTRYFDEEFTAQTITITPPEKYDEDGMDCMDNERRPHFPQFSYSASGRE
In short: as §2

Lck = target: T11, Lck (Homo sapiens, UniProt P06239); test: Kinase inhibition assay (33P transfer), Lck; conditions: for IC50: read-out: Lck-1
T11 construct: Kinases are expressed as either kinase domains or full length constructs; made in house
T11 sequence (P06239 whole entry, species assumed, the tested form may be a part): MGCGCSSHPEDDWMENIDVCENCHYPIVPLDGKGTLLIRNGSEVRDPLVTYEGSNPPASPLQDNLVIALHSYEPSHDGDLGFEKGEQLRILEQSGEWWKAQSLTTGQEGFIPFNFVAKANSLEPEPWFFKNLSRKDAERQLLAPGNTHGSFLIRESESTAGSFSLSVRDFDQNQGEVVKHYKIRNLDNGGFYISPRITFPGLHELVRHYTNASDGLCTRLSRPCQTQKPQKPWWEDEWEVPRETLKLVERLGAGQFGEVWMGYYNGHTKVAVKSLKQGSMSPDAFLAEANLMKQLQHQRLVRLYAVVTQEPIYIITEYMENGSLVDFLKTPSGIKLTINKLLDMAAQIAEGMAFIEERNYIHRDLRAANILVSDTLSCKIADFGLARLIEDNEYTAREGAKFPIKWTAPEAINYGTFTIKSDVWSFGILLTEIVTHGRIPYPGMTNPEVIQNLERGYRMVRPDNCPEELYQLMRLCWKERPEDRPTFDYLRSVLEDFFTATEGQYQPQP
In short: as §2

T1 sequence (Q02763 23-1124, species assumed): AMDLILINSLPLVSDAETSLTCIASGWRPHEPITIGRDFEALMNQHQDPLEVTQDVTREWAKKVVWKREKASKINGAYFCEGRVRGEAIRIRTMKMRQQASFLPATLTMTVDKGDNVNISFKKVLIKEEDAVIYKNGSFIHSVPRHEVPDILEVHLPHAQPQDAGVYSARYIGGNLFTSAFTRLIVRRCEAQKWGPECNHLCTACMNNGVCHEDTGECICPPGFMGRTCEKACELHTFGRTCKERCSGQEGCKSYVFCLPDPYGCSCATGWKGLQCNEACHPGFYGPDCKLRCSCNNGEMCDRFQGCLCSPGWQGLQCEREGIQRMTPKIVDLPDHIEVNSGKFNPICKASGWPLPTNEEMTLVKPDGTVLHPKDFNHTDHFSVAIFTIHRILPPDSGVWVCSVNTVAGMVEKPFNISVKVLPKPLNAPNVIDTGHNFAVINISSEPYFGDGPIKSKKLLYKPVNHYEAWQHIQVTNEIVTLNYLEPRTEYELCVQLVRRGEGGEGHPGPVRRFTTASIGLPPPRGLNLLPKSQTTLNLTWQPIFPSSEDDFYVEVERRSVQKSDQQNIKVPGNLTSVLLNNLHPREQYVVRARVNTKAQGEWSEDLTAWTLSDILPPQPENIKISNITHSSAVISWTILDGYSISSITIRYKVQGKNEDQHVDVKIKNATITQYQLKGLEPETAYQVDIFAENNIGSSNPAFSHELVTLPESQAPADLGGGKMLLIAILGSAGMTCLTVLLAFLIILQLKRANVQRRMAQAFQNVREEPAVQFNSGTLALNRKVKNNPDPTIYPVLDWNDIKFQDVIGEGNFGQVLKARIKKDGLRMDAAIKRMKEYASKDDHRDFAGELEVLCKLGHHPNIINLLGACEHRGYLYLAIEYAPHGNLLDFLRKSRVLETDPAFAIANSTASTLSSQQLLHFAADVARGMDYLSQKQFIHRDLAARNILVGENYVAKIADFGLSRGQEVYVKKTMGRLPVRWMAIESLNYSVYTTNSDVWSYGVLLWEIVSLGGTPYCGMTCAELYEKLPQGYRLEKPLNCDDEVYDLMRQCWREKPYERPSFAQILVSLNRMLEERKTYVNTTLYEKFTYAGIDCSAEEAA

| Compound | IC50 (Tek) [µM] | IC50 (ErbB2) [µM] | IC50 (Kdr) [µM] | IC50 (Zap-70) [µM] | IC50 (c-Met) [µM] | IC50 (EGFR) [µM] | IC50 (IGFR-1) [µM] | IC50 (PDGFRB) [µM] | IC50 (Itk) [µM] | IC50 (AKT) [µM] | IC50 (Lck) [µM] | also measured |
| --- | --- | --- | --- | --- | --- | --- | --- | --- | --- | --- | --- | --- |
| O=C(O)Cc1cccc(Nc2ncnc(Nc3cc(-c4ccco4)n[nH]3)n2)c1 [Compound 983] | 6.36 to 9.27 | > 11.9 | < 1.06 | 6.36 to 9.27 | < 1.06 | < 1.06 | 1.06 to 6.36 | 1.06 to 6.36 | 1.06 to 6.36 | 9.27 to 11.9 | 6.36 to 9.27 | – |
| COc1ccc(Nc2ncnc(Nc3cc(-c4ccccc4)n[nH]3)n2)cc1OC [Compound 977] | > 11.6 | 1.03 to 6.16 | < 1.03 | > 11.6 | < 1.03 | 1.03 to 6.16 | < 1.03 | > 11.6 | > 11.6 | > 11.6 | < 1.03 | – |
| COc1cc(Nc2ncnc(Nc3cccc(C(F)(F)F)c3)n2)cc(OC)c1OC [Compound 614] | 8.31 to 10.7 | 0.949 to 5.7 | 8.31 to 10.7 | > 10.7 | > 10.7 | < 0.949 | < 0.949 | 0.949 to 5.7 | > 10.7 | > 10.7 | 0.949 to 5.7 | – |
| COc1cc(Nc2ncnc(-n3c(NCc4nc5ccccc5[nH]4)nc4ccccc43)n2)cc(OC)c1OC [Compound 954] | > 8.6 | 4.58 to 6.69 | 6.69 to 8.6 | > 8.6 | 6.69 to 8.6 | > 8.6 | 6.69 to 8.6 | > 8.6 | 4.58 to 6.69 | > 8.6 | 6.69 to 8.6 | – |
| Nc1nc2ccccc2n1-c1ncnc(Nc2cccc(Cl)c2)n1 [Compound 474] | 1.18 to 7.11 | 1.18 to 7.11 | 1.18 to 7.11 | 7.11 to 10.4 | 1.18 to 7.11 | 1.18 to 7.11 | 1.18 to 7.11 | 1.18 to 7.11 | 1.18 to 7.11 | 1.18 to 7.11 | 1.18 to 7.11 | – |
| COc1cc(Nc2ncnc(Nc3cccc(C(C)=O)c3)n2)cc(OC)c1OC [Compound 697] | 8.85 to 11.4 | 1.01 to 6.07 | 1.01 to 6.07 | > 11.4 | > 11.4 | 1.01 to 6.07 | 1.01 to 6.07 | < 1.01 | > 11.4 | > 11.4 | < 1.01 | – |
| NC(=O)c1ccc(Nc2ncnc(-c3cccnc3NCc3cccs3)n2)cc1 [Compound 1083] | 0.991 to 5.95 | > 11.2 | < 0.991 | > 11.2 | > 11.2 | 0.991 to 5.95 | > 11.2 | 0.991 to 5.95 | 8.67 to 11.2 | > 11.2 | 0.991 to 5.95 | – |
| COc1cc(Nc2ncnc(Nc3ccc(NS(=O)(=O)c4ccc([N+](=O)[O-])cc4)cc3)n2)cc(OC)c1OC [Compound 692] | 0.723 to 4.34 | < 0.723 | < 0.723 | 0.723 to 4.34 | 4.34 to 6.32 | 0.723 to 4.34 | 0.723 to 4.34 | < 0.723 | 0.723 to 4.34 | > 8.13 | < 0.723 | – |
| CCN(CC)C(=O)C1CCCN(c2ncnc(Nc3cc(OC)c(OC)c(OC)c3)n2)C1 (centres unmarked) [Compound 615] | > 10.1 | > 10.1 | > 10.1 | > 10.1 | > 10.1 | > 10.1 | > 10.1 | > 10.1 | 7.87 to 10.1 | > 10.1 | 7.87 to 10.1 | – |
| Nc1nc2ccccc2n1-c1ncnc(Nc2cccnc2)n1 [Compound 658] | > 14.8 | > 14.8 | 1.31 to 7.89 | > 14.8 | > 14.8 | 7.89 to 11.5 | < 1.31 | > 14.8 | 1.31 to 7.89 | > 14.8 | > 14.8 | – |
| COC(=O)c1ccc(-c2cc(Nc3ncnc(Nc4cc(OC)c(OC)c(OC)c4)n3)[nH]n2)cc1 [Compound 523] | > 9.42 | 7.33 to 9.42 | > 9.42 | > 9.42 | < 0.838 | 0.838 to 5.03 | < 0.838 | > 9.42 | 7.33 to 9.42 | > 9.42 | < 0.838 | – |
| COc1cc(Nc2ncnc(Nc3ccc(O)c4ncccc34)n2)cc(OC)c1OC [Compound 699] | – | – | – | – | – | – | – | – | – | – | – | Tek-1 (Tek): D (D>3.5 and <4.5 ug/mL); ErbB2-2 (ErbB2): A (A<0.4 ug/mL); KDR-1 (Kdr): B (B>0.4 and <2.4 ug/mL); Zap-1 (Zap-70): E (E>4.5 ug/mL); Met-1 (c-Met): E (E>4.5 ug/mL); EGFR-1 (EGFR): B (B>0.4 and <2.4 ug/mL); IGFR-1 (IGFR-1): B (B>0.4 and <2.4 ug/mL); PDGFRB-1 (PDGFRB): A (A<0.4 ug/mL); Itk-1 (Itk): B (B>0.4 and <2.4 ug/mL); AKT3-1 (AKT): E (E>4.5 ug/mL); Lck-1 (Lck): A (A<0.4 ug/mL) |
| COc1cccc(Nc2ncnc(-n3c(N)nc4ccccc43)n2)c1 [Compound 654] | 1.2 to 7.2 | 1.2 to 7.2 | < 1.2 | > 13.5 | 7.2 to 10.5 | 7.2 to 10.5 | < 1.2 | 1.2 to 7.2 | 1.2 to 7.2 | > 13.5 | 1.2 to 7.2 | – |
